For series [1], the system named is human breast epithelial cell line (MCF-7). Nature of the series: In vitro cell proliferation assay (SRB), MCF-7. The format is cell-based. Particulars: MCF7, 72 h, mean ± S.D. The protocol: (§1) The cell proliferation assay was performed in 96-well plates as described previously. A panel of four cancer cell lines of different tissues of origins, namely: human lung adenocarcinoma epithelial cell line (A549), human lymphoblast cell line (CEM), human cervix cell line (HeLa) and human breast epithelial cell line (MCF-7) were studied. These cell lines were obtained from the National Repository of Animal Cell Culture, National Centre for Cell Sciences, Pune (NCCS), India. Briefly, 2 x10^3 cells were seeded in each well and were incubated with gradient concentrations of 5a, 6a-j compounds for 72 h. The cells were then fixed with 50% trichloroacetic acid and stained with 0.4% sulforhodamine B (SRB) dissolved in 1% acetic acid. Cells were then washed with1% acetic acid to remove excess (unbound) SRB. The protein-bound SRB was dissolved with 10 mM Tris base and the absorbance at 564 nm was determined using a SPECTRAmax PLUS 384 microplate spectrophotometer.

Series [2] deals with human lung adenocarcinoma epithelial cell line (A549). Nature of the series: In vitro cell proliferation assay (SRB), A549. The series is classed as cell-based. Particulars: 72 h, mean ± S.D. As for the experimental part:
as §1

The target in series [3] is T1, tubulin (Bos taurus, UniProt P81947+Q6B856).
T1 construct: Tubulin devoid of microtubule-associated proteins (MAPs) was purified from bovine brain; from tissue; host or cells: bovine brain
T1 sequence (Q6B856 whole entry): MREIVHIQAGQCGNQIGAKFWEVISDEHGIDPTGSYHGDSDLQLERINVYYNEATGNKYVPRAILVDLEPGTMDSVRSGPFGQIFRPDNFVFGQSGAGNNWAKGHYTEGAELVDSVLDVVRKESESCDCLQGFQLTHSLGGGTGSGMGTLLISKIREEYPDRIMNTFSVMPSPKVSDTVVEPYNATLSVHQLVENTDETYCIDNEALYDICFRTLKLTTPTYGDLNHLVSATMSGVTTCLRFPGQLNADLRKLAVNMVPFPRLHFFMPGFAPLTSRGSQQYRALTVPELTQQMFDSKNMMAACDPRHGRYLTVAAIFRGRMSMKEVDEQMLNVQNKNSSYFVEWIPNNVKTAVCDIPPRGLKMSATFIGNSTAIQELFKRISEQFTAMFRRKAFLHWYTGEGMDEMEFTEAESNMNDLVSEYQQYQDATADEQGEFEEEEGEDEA
T1 sequence (P81947 whole entry): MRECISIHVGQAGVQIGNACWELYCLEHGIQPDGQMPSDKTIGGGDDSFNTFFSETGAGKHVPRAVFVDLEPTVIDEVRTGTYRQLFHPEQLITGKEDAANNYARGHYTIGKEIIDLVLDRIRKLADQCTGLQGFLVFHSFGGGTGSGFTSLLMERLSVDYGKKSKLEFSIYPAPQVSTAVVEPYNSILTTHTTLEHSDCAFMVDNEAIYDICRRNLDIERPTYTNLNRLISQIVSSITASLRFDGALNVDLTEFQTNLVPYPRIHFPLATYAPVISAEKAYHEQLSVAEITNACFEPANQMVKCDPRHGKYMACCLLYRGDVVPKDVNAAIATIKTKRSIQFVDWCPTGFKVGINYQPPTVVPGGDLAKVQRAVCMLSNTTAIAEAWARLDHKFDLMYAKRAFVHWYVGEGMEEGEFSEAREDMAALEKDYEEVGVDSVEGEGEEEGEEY
Nature of the series: Tubulin binding assay (quenching of intrinsic tryptophan fluorescence). Also noted: species or system bovine. As for the experimental part: Tubulin devoid of microtubule-associated proteins (MAPs) was purified from bovine brain by cycles of temperature-dependent polymerization and depolymerization as described previously followed by phosphocellulose chromatography. The concentration of the tubulin was determined by the method of Bradford using BSA as the standard. Purified tubulin was quickly frozen as drops in liquid nitrogen and stored at - 80 °C until used.
Noscapinoids quench the […] intrinsic tryptophan fluorescence of tubulin in a concentration-dependent fashion as described previously. This has allowed an easy method for measuring the tubulin-noscapinoids interactions. Briefly, the compounds 5a, 6a-j (0-200 µM) were incubated with 2 µM tubulin in PEM buffer (100 mM PIPES, pH 6.8, 3 mM MgSO4, and 1 mM EGTA) at 37 °C for 45 min. After incubation, the samples were excited at 295 nm. The relative intrinsic fluorescence intensity of the tubulin was then monitored in the absence and presence of the compound 5a, 6a-j using a Varian Cary Eclipse Fluorescence Spectrophotometer (Agilent Technologies, CA, USA). The emission readings were recorded at 335 nm. We used a 0.3 cm path-length cuvette to minimize the inner filter effects caused by the absorbance of the noscapinoids. In addition, the inner filter effects were corrected using a formula F corrected = F observed·antilog [(A ex + A em)/2], where A ex is the absorbance at the excitation wavelength and A em is the absorbance at the emission wavelength. The equilibrium dissociation constant (KD) was determined by the formula: 1/a = KD/[free ligand] + 1, where a is the fractional occupancy and [free ligand] is the concentration of free ligand. The fractional occupancy (a) was determined by the formula a = ΔF/ΔF max, where ΔF is the change in fluorescence intensity when tubulin and its ligand are in equilibrium and ΔF max is the value of maximum fluorescence change when tubulin is completely bound with its ligand. ΔF max was calculated by plotting 1/ΔF versus 1/ligand, using total ligand concentration as the first estimate of free ligand concentration. Three independent experiments were performed for each noscapinoid.

Series [4] relates to cancer cells of different tissues of origin (CEM, HeLa, A549, MCF-7). As to the kind of experiment: In vitro cell proliferation assay (SRB), panel of four cancer cell lines. The format is cell-based. Particulars: Homo sapiens; range over cancer cells of different tissues of origin. As for the experimental part:
as §1

Series [5] has as its system MCF-7 cells. Nature of the series: Cell cycle analysis by flow cytometry (propidium iodide). The series is classed as cell-based, human. Particulars: MCF-7, 25 µM. The protocol:
The flow cytometric evaluation of the cell cycle status was performed as described previously. Briefly, cells (2 x 10^6) treated with the noscapinoids up to 72 h were centrifuged, washed twice with cold PBS, and fixed in 70% ethanol. Tubes containing the cell pellets were stored at 4 °C for minimum of 24 h. Cells were then centrifuged at 1000 x g for 10 min and the supernatant was discarded. The pellets were washed twice with 5 ml of PBS and then stained with 0.5 ml of propidium iodide (0.1% of Pl + 0.6% Triton-X in PBS) and 0.5 ml of RNase A (2 mg/ml) for 45 minutes in dark. Samples were then analyzed on a FACS Calibur flow cytometer ([…]).
A general note: A flow cytometer gives signals particle by particle.

The subject of series [6] is human lymphoblast cell line (CEM). As to the kind of experiment: In vitro cell proliferation assay (SRB), CEM. The format is cell-based. The settings on record: 72 h, mean ± S.D. The protocol:
as §1

Series [7] has as its system human cervix cell line (HeLa). Nature of the series: In vitro cell proliferation assay (SRB), HeLa. The settings on record: 72 h, mean ± S.D. The series is classed as cell-based. As for the experimental part: as §1

Consider one molecule from paper PMC3804772, “Rational Design, Synthesis, and Biological Evaluation of Third Generation α-Noscapine Analogues as Potent Tubulin Binding Anti-Cancer Agents” (PLoS ONE, 2013).

Molecule `COc1ccc2c(c1OC)C(=O)O[C@@H]2[C@H]1c2c(cc3c(c2OC)OCO3)CCN1Cc1cccc(Br)c1` [Compound 6f, (S)-3-((R)-6-(3-bromobenzyl)-4-methoxy-5,6,7,8-tetrahydro-[1,3]dioxolo[4,5-g]isoquinolin-5-yl)-6,7-dimethoxyisobenzofuran-1(3H)-one] gave a melting point of 65 °C. In series [1], this molecule showed an IC50 of 24.5 ± 0.8 µM. The molecule further gave an IC50 in series [2] of 26.9 ± 1.4 µM. This molecule also gave a Kd in series [3] (2 µM tubulin, PEM buffer pH 6.8, 37 °C, 45 min, mean ± S.D.) of 38 ± 4 µM. In series [3] (calculated from KD, ΔGbind = RT ln KD, T = 298 K), the “Experimental ΔGbind” value was -6.036 kcal/mol. Also, in series [3] (ratio of KD values), the “Tubulin binding affinity relative to the parent compound noscapine” value is recorded as ~ 4.0 times. In series [4], the IC50 was in the range of 6.7 to 26.9 µM. In series [5] (24 hours), the “Cell cycle parameters % G0/G1, 24 hours” value turned out to be 11.82%; the “Cell cycle parameters % G2/M, 24 hours” value is recorded as 67.48%; the “Cell cycle parameters % S, 24 hours” value is 6.29%; the “Cell cycle parameters % Sub-G1, 24 hours” value worked out at 9.47%. Also, in series [5] (72 hours), the “Cell cycle parameters % G0/G1, 72 hours” value was 6.38%; the “Cell cycle parameters % G2/M, 72 hours” value turned out to be 37.29%; the “Cell cycle parameters % S, 72 hours” value came out at 4.72%; the “Cell cycle parameters % Sub-G1, 72 hours” value worked out at 50.44%. The IC50 in series [6] was 6.7 ± 0.3 µM. The molecule further gave a 50% inhibitory concentration (IC50) in series [7] of 15.3 ± 0.5 µM.

One may read the IC50 as the concentration needed to halve the response being measured. High values mean lower potency, low ones higher potency. One may read the melting point as the temperature, or range, at which the solid turns liquid. As usually defined, the Kd is the concentration at which binding is half-saturated.
